Experimental data as given in PubChem BioAssay (NCI).
Values joined by “and” are separate entries in the source; they are usually repeats but may differ in a detail not shown here. Equal entries are not always repeated.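 Tested at 5 concentrations; 48 h exposure; 96-well plates; endpoints linearly interpolated, else capped at highest concentration. GI50 = concentration required for 50% inhibition of growth. At the TGI there is no net growth.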

Experiments:
Experiment in all cases: NCI tumour cell line growth inhibition, 48 h
HS 578T breast = test system: HS 578T breast
NCI-H460 lung = test system: NCI-H460 lung
T-47D breast = test system: T-47D breast
CCRF-CEM leukemia = test system: CCRF-CEM leukemia
KM12 colon = test system: KM12 colon
SF-295 CNS = test system: SF-295 CNS
SK-MEL-2 melanoma = test system: SK-MEL-2 melanoma
A549 NSCLC = test system: A549 NSCLC
TK-10 renal = test system: TK-10 renal
COLO 205 colon = test system: COLO 205 colon
LOX IMVI melanoma = test system: LOX IMVI melanoma

Compound | TGI (HS 578T breast) | TGI (NCI-H460 lung) | TGI (T-47D breast) | TGI (CCRF-CEM leukemia) | TGI (KM12 colon) | TGI (SF-295 CNS) | TGI (SK-MEL-2 melanoma) | TGI (A549 NSCLC) | TGI (TK-10 renal) | TGI (COLO 205 colon) | TGI (LOX IMVI melanoma) | GI50 (KM12 colon) | GI50 (SF-295 CNS) | GI50 (SK-MEL-2 melanoma) | GI50 (COLO 205 colon)
CO[C@H]1O[C@@H]2CO[C@@H](c3ccccc3)O[C@H]2C[C@]12CCC/C=C\CO2 | 40 µM | > 75 µM | 59.6 µM | 36.5 µM | > 75 µM | > 75 µM | 41.4 µM | > 75 µM | 59.2 µM | 26.6 µM | 22.9 µM |  |  |  | 
Cc1cc(=Nc2ccc3c(c2)c(N)cc(C)[n+]3C)nc(N)n1C | > 100 µM | > 100 µM | > 100 µM | > 100 µM | > 100 µM | > 100 µM | > 100 µM | > 100 µM | > 100 µM | > 100 µM | > 100 µM |  |  |  | 
CC(Cc1ccc(O)c(O)c1)C(C)Cc1ccc(O)c(O)c1 (stereo not drawn) | 52.5 µM | 35 µM | 41.2 µM | 19.3 µM | 33.5 µM | 43 µM | 42.9 µM | > 88.4 µM | > 87.7 µM | 35.9 µM | 38.8 µM |  |  |  | 
CCOC(=O)c1nc2cc(C(F)(F)F)ccc2nc1Nc1ccc(Cl)c(Cl)c1 | > 100 µM | > 100 µM | > 100 µM | > 100 µM | > 100 µM | > 100 µM | > 100 µM | > 100 µM | > 100 µM | > 100 µM | > 100 µM |  |  |  | 
Cc1cccc2c1C(=O)C(C1OC(=O)c3ccccc31)C2 (stereo not drawn) | > 100 µM | > 100 µM | > 100 µM | > 100 µM | > 100 µM | > 100 µM | > 100 µM | > 100 µM | > 100 µM | > 100 µM | > 100 µM |  |  |  | 
Cn1c(=O)n(CC(Br)CBr)c(=O)n(CC(Br)CBr)c1=O (stereo not drawn) | > 100 µM | > 100 µM | > 100 µM | 66.9 µM | > 100 µM | > 100 µM | > 100 µM | > 100 µM | > 100 µM | 43.4 µM | 34.9 µM |  |  |  | 
CCOC(=O)CCC(NC(=O)OCc1ccccc1)C(=O)NC(CCC(=O)OCC)C(=O)NC(CCC(=O)OCC)C(=O)NC(CCC(=O)OCC)C(=O)NC(CCC(=O)OCC)C(=O)OCC (stereo not drawn) | > 100 µM | > 100 µM | > 100 µM | > 100 µM | > 100 µM | > 100 µM | > 100 µM | > 100 µM | > 100 µM | > 100 µM | > 100 µM |  |  |  | 
CC1(C)CC(=O)c2c(nc3ccc4ccccc4c3c2-c2ccc(NC(=O)CCCCC(=O)Nc3ccc(-c4c5c(nc6ccc7ccccc7c46)CC(C)(C)CC5=O)cc3)cc2)C1 | > 100 µM | > 100 µM | > 100 µM | > 100 µM | > 100 µM | > 100 µM | > 100 µM | > 100 µM | > 100 µM | > 100 µM | > 100 µM |  |  |  | 
CN1C[C@@H]2CCCN2P1Oc1cccc2cccnc12 (stereo partly drawn) | 68.1 µM | > 100 µM | > 100 µM | 19.3 µM | > 100 µM | > 100 µM | > 100 µM | > 100 µM | > 100 µM | > 100 µM | > 100 µM |  |  |  | 
O=C(/C=C/c1ccc(Cl)c(Cl)c1)Oc1ccc(/C=C2\CCCCC2=O)cc1 | > 100 µM | > 100 µM | > 100 µM | > 100 µM | > 100 µM | > 100 µM | > 100 µM | > 100 µM | > 100 µM | > 100 µM | > 100 µM |  |  |  | 
COC/C=C\[C@@]1(O)CCCC[C@@H]1CC(OC)OC | > 100 µM | > 90 µM | > 100 µM | > 64.3 µM | > 100 µM | 97.3 µM | > 100 µM | > 100 µM | > 100 µM | > 100 µM | 20.9 µM |  |  |  | 
Cc1ccc(C2=Nc3c(N)nc(N)nc3NC(c3ccccc3)C2)cc1 (stereo not drawn) | 33.9 µM and 41.1 µM | 28.3 µM | 28.2 µM and 32.6 µM | 48.5 µM and 96.9 µM | 13.8 µM and 33.7 µM | 17.9 µM and 23.8 µM | 22 µM and 17.9 µM | 26.3 µM and 23.6 µM | 27.6 µM and 40.2 µM | 14 µM and 25.3 µM | 23 µM and 28 µM | 3.97 µM and 18 µM | 4.9 µM and 10.5 µM | 9.71 µM and 4.19 µM | 5.21 µM and 11.4 µM
Fc1ccc(C(OCCN2CCC3CCC(C2)N3Cc2cc3ccccc3[nH]2)c2ccc(F)cc2)cc1 (stereo not drawn) | 4 µM | 3.67 µM | 3.18 µM | 4.69 µM | 3.72 µM | 3.78 µM | 3.16 µM | 4.26 µM | 5.38 µM | 2.14 µM | 3.18 µM |  |  |  | 
Cc1nc2c(-c3ccccc3)[nH]c(C)c2c(=O)o1 | > 100 µM | > 100 µM | > 100 µM | > 100 µM | > 100 µM | > 100 µM | > 100 µM | > 100 µM | > 100 µM | > 100 µM | > 100 µM |  |  |  | 
CCOC(=O)c1c(SCCO)n(-c2ccccc2)c(=S)n(-c2ccccc2)c1=O | > 100 µM | > 100 µM | > 100 µM | > 100 µM | > 100 µM | > 100 µM | > 100 µM | > 100 µM | > 100 µM | > 100 µM | > 100 µM |  |  |  | 
O=C(O)CCC1(c2ccccc2)NC(=O)NC1=O (stereo not drawn) | > 100 µM | > 100 µM | > 100 µM | > 100 µM | > 100 µM | > 100 µM | > 100 µM | > 100 µM | > 100 µM | > 100 µM | > 100 µM |  |  |  | 
CN(/N=C\c1ccc2ccccc2c1)C1=NCCCCN1 | 62.3 µM | 39.7 µM | > 100 µM | 69.1 µM | 52.1 µM | 33.5 µM | 45.4 µM | 58.3 µM | 56.5 µM | 35.3 µM | 28.7 µM |  |  |  | 
O=C1c2ccccc2C(=O)N1c1ccc(OCCN2CCCCC2)cc1 | > 100 µM | > 100 µM | > 100 µM | > 100 µM | > 100 µM | > 100 µM | > 100 µM | > 100 µM | > 100 µM | > 100 µM | > 100 µM |  |  |  | 
O=C(NCc1ccccc1)c1cnc(Cl)cn1 | > 100 µM | > 100 µM | > 100 µM | 62.6 µM | > 100 µM | > 100 µM | > 100 µM | > 100 µM | > 100 µM | > 100 µM | > 100 µM |  |  |  | 
